A short description of data set [1]: Plasma protein binding, equilibrium dialysis, human plasma. Type of data set: in vitro ADME. Conditions: 5 hours at 37° C., read-out: PPB % bound Human (converted). As to the method:
(§1) The compounds of interest were evaluated for various PK parameters. Specifically CACO permeability/efflux and plasma protein binding (PPP) were determined. Stock solutions were prepared at 10 mM in DMSO for test and reference compounds. Aliquots of the stock solution were diluted to 500× of final concentration (0.5 mM) with DMSO, then further diluted upon the addition of bank PE3-buffer to 20× of final concentration (20 μM). Then test and reference compounds were prepared in plasma at 1 μM. For 0 hour incubation: 25 μL of the plasma spiked with test and reference compounds was transferred into a 96-well sample preparation plate, and then 25 μL blank PB-buffer was added. The samples were quenched by 200 μL of IS solution to prepare [Initial]0h samples. For 5 hours incubation: 100 μL of the plasma spiking with test and reference compounds was loaded on donor side, and 100 μL of blank PB-buffer were loaded on receiver side of the equilibrium dialysis device. Samples were incubated in an air-bath shaker (60 rpm) for 5 hours at 37° C. After 5 hours incubation, 25 μL of samples (from both the donor sides and receiver sides of the dialysis apparatus) was aspirated and added into new sample preparation plates, separately. 25 μL of blank PB-buffer was added to donor side samples and 25 μL of blank plasma was added to receiver side samples to balance the matrix. The samples were quenched with 200 μL of IS solution. The assay plate was shaken at the vibrator (Hangzhou Allsheng, MX100-4A) for 10 min (600 rpm) and then centrifuged at 5,594×g for 15 min (Thermo Multifuge×3R). An aliquot of the 50 μL supernatant was taken from each well and diluted by 50 μL distilled water, then analyzed by UPLC-MS/MS.
On the technique in general: Equilibrium dialysis compares concentrations on both sides of a semipermeable membrane.

Data set [2] is described as follows: Caco-2 permeability/efflux. Type of data set: in vitro ADME. Conditions: human, Caco-2, pH 7.4; B-A / A-B. As to the method:
(§2) Caco-2 cells were obtained from American Tissue Culture Collection (Rockville, MD). The cells were maintained in Modified Eagle's medium (MEM), containing 10% heat-inactivated fetal bovine serum (FBS), and 1% non-essential amino acids, in CO2 at 37° C. Cells were seeded on polycarbonate filter inserts (Millipore, CAT #PSHT 010 R5). The cells were cultured for 21-28 days prior to the permeability experiments. The Lucifer Yellow permeability was checked before and after the assay. Compounds were dissolved at 10 mM in 100% dimethyl sulfoxide (DMSO) and diluted for studies in Hanks Balanced Salt Solution (HBSS, Invitrogen, Cat #14025-092) with 25 mM HEPES, pH 7.4. Compounds were tested at 10 µM in both the apical-to-basolateral (A-B) and basolateral-to-apical (B-A) directions, incubations were conducted at 37° C. for 90 min. At the end of incubation, samples were diluted by assay buffer, and analyzed by LC-MS/MS. The concentrations of the compounds were quantified by standard curve. The first comparator example (Comp. Ex. 1) is the chloro substituted thienodihydropyridine

Another data set relates to Caco-2 cells. The data set is described as follows: Caco-2 permeability/efflux. The data set is classed as in vitro ADME. The settings on record: 10 uM, 37° C., 90 min, pH 7.4. As to the method: as §2
In general terms: Caco-2 monolayers are a common model of the intestinal barrier.

A short description of another data set: Solubility Evaluation. The settings on record: kinetic from dmso stock, 1 hour at RT. Type of data set: physicochemical. The procedure: The compounds of interest were evaluated for their solubility in various biological solutions. Specifically, aliquots (8 μL) of reference and test compound stock solutions (10 mM) were added into 792 μL of buffer (PBS, pH7.4, FaSSIF, pH 6.5, or FaSSGF, pH 1.6) respectively (Final DMSO conc.: 1%). Sample tubes were shaken for 1 hour (1000 rpm) at RT. The experiment was calibrated using 300 μM spiked solution (SS) in MeOH/CAN (4:1) by adding 6 μL of 10 mM compound stock solution in 194 μL MeOH/ACN(4:1) ranging from 60 μM to 0.02 μM. The samples were centrifuged (10 min-12000 rpm) to precipitate un-dissolved particles. The supernatants were transferred to a new tube or plate. Supernatants were diluted 10 times and 100 times with 100 mM buffer then analyzed by LC-MS/MS. SGF=simulated gastric fluid, SIF=simulated intestinal fluid, PBS=phosphate buffered saline pH 7.4 Values are noted in μM.

Data set [3] in a line: Plasma protein binding, equilibrium dialysis, rat plasma. The settings on record: 5 hours at 37° C., read-out: PPB % bound Rat (converted). Type of data set: in vitro ADME. The procedure: as §1
The nature of data set [4]: Plasma protein binding, equilibrium dialysis, mouse plasma. Type of data set: in vitro ADME. The settings on record: 5 hours at 37° C., read-out: PPB % bound Mouse (converted). The procedure: as §1
The next data set has as its target SAE1 (Homo sapiens (Human), UniProt Q9UBE0+Q9UBT2). The data set is described as follows: SAE High Throughput Biochemical Assay (HTRF), 15 min preincubation. Conditions: read-out: 15 min preincubation HTRF IC50 (μM) Ave, SAE1 12.5 nM, ATP 100 μM. An outline of the steps: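 HTRF detection of SUMO transfer from SUMO-GST to UBC9-His (40 nM each) by SAE1 at 12.5 nM used 100 μM ATP in pH 7.5 HEPES buffer with 10 mM MgCl2 and 0.1% BSA. Enzyme and compound were preincubated 15 min at RT and the reaction ran 45 min, with readings after 2 h and overnight.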

Data set [5] is described as follows: Plasma protein binding, equilibrium dialysis, monkey plasma. The data set is classed as in vitro ADME. The settings on record: 5 hours at 37° C., read-out: PPB % bound Monkey (converted). The procedure: as §1
Data set [6] is described as follows: Plasma protein binding, equilibrium dialysis, dog plasma. The settings on record: 5 hours at 37° C., read-out: PPB % bound Dog (converted). The data set is classed as in vitro ADME. As to the method:
as §1

[7] abbreviates: PBS (phosphate buffered saline), aqueous buffer, phosphate buffered saline pH 7.4, 1% DMSO, read-out: Solubilities PBS.
Where [8] appears, read: simulated intestinal fluid (FaSSIF, pH 6.5), 1% DMSO, read-out: Solubilities SIF.

What is called efflux ratio is a quotient of directional permeabilities that is used to spot active efflux. The IC50 is the concentration needed to halve the response being measured.

In brackets after ≈: the same amount, converted by molar mass. Like-named read-outs stand apart in the source and are kept apart here. Where only a bound is given, the exact number is not on record here.

Sequence of SAE1 (Q9UBE0 whole entry): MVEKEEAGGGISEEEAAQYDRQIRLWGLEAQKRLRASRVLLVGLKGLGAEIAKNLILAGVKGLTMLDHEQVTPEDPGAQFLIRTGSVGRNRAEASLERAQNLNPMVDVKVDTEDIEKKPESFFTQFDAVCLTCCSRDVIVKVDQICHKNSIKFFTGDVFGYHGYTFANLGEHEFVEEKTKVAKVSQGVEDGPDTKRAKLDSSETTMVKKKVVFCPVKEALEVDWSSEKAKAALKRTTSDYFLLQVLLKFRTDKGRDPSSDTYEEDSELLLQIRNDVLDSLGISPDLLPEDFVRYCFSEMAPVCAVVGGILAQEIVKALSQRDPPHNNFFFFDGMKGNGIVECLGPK
Sequence of SAE1 (Q9UBT2 whole entry): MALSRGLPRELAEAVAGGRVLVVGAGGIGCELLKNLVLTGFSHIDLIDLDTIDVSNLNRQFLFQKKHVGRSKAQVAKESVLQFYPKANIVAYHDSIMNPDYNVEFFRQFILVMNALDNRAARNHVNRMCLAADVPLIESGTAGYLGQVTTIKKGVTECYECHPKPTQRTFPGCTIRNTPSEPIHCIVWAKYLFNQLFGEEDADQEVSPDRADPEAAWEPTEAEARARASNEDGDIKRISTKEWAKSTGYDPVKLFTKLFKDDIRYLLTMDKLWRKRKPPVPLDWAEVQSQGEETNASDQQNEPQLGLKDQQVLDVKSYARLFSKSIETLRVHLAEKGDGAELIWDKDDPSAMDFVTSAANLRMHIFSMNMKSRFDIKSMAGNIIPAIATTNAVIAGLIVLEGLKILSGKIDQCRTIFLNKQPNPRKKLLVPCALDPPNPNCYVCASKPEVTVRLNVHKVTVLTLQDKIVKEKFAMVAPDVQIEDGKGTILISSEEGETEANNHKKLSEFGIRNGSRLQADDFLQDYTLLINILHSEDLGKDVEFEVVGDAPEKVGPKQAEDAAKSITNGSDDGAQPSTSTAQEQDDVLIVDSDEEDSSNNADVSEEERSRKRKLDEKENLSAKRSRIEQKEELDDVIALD

`C=CC(=O)N1Cc2sc(C#N)c(C)c2[C@H](c2cccc(F)c2-c2cn(CC)nc2C(F)(F)F)C1` [Compound 222]: the fraction unbound at 5 h, 1 μM in [1] is 0.008; in data set [3], 0.004; in [4], 0.005; in [5] it was 0.009; in data set [6], 0.001. For the same compound, the efflux ratio at 90 min, 10 μM in data set [2] amounted to 1. Also, the Caco-2 apparent permeability (Papp) was 3.4 10^-6 cm/s in the data set with Caco-2 cells (apical-to-basolateral) and 4.1 10^-6 cm/s in the data set on Caco-2 cells (basolateral-to-apical). Also, the values for the solubility at 1 h in the data set “Solubility Evaluation” (setting [7]) and in the data set “Solubility Evaluation” (setting [8]) were 41 µM (≈ 20 µg/mL) and 29 µM (≈ 14.2 µg/mL), respectively. For the same compound, the IC50 at SAE1 was determined as 0.1 µM.
Take `CCn1cc(-c2c(F)cccc2[C@@H]2CN(C(=O)/C=C/CN(C)C)Cc3sc(C#N)c(C)c32)c(C(F)(F)F)n1` [Example 46, (S, E)-6-(4-(dimethylamino)but-2-enoyl)-4-(2-(1-ethyl-3-(trifluoromethyl)-1 H-pyrazol-4-yl)-3-fluorophenyl)-3-methyl-4,5,6,7-tetrahydrothieno[2,3-c]pyridine-2-carbonitrile]: the fraction unbound at 5 h, 1 μM in data set [1] is 0.028; in data set [3] it was 0.021; in [4], 0.013; in data set [5] it was 0.047; in [6], 0.008. In data set [2], the efflux ratio at 90 min, 10 μM is 1. In addition, the figures for the Caco-2 apparent permeability (Papp) in the data set with Caco-2 cells (apical-to-basolateral) and with Caco-2 cells (basolateral-to-apical) were 12.7 10^-6 cm/s and 11.6 10^-6 cm/s, respectively. The solubility at 1 h was 97 µM (≈ 52.9 µg/mL) in “Solubility Evaluation” (setting [7]) and greater than 100 µM in the data set “Solubility Evaluation” (setting [8]). The half-maximal inhibitory concentration (IC50) at SAE1 is 0.2 µM.
As for `CCn1cc(-c2c(F)cccc2[C@@H]2CN(C(=O)/C=C/CNC)Cc3sc(C#N)cc32)c(C(F)(F)F)n1` [Example 50], the fraction unbound at 5 h, 1 μM was 0.033 in data set [1]; 0.062 in data set [3]; 0.039 in [4]; 0.064 in data set [5]; 0.02 in data set [6]. In addition, the efflux ratio at 90 min, 10 μM in [2] was found to be 6. Besides, the Caco-2 apparent permeability (Papp) in the data set with Caco-2 cells (apical-to-basolateral) was 4 10^-6 cm/s; with Caco-2 cells (basolateral-to-apical), 21 10^-6 cm/s. Moreover, the values for the solubility at 1 h in “Solubility Evaluation” (setting [7]) and in the data set “Solubility Evaluation” (setting [8]) were 30 µM (≈ 15.5 µg/mL) and 28 µM (≈ 14.5 µg/mL), respectively. For the same compound, the half-maximal inhibitory concentration (IC50) at SAE1 amounted to 0.51 µM.

Source of the values: US20240360148A1 (SUVALENT THERAPEUTICS, INC., priority 2021, published 2024).
